Measurements as given in patent US9023767B2, “γ-Secretase substrates and methods of use” (Memorial Sloan-Kettering Cancer Center, priority 2009, dated 2015).

Columns and labels:
γ-secretase [1] = target: T1, γ-secretase (Homo sapiens (Human), UniProt P49768+Q92542); assay: In vitro γ-secretase assay, HeLa membrane, APP-derived substrates, ECL detection; assay type: biochemical; details: S4 substrate
Method: The recombinant proteins were incubated with γ-secretase (40 μg/ml) in the presence or absence of 1 μM γ-secretase inhibitor L-685,458 (CAS [292632-98-5], shown below). The reaction mixture contains 0.25% 3[(3-cholamidopropyl) dimethylammonio]-2-hydroxypropanesulfonic acid (CHAPSO), 0.1 μg/μl BSA, protease inhibitor, 50 mM PIPES, pH 7.0, 5 mM MgCl2, 5 mM CaCl2 and 150 mM KCl. The reaction was incubated for 2.5 hr at 37° C. and stopped by adding RIPA buffer (150 mM NaCl, 1.0% NP-40, 0.5% sodium
[drawing 1] deoxycholate, 0.1% SDS, 50 mM Tris HCl, pH 8.0). The products were detected with various antibody combinations as previously described (Lai et al., 2003; J. Biol. Chem., 278: 22475-22481; Li et al., 2000, Proc. Natl. Acad. Sci. USA, 97: 6138-6143; Yin et al., 2007, J. Biol. Chem., 282:23639-23644) using electrochemiluminescence (ECL). The amount of product was determined using synthetic peptide or recombinant standards. The Km and Vmax were determined from the Michaelis-Menten equation Michaelis-Menten Kinetics (ν=Vm[S]/([…]; ν: initial rate; Vm: maximum velocity; Km: the Michaelis-Menten constant, S: substrate). P-values were calculated from Student t-test. 7.1.5 Cell-Based Aβ Production Assay and Western Blot

γ-secretase [2] = target: T1, γ-secretase; assay: Photoaffinity labeling of γ-secretase in HeLa membrane by Aβ17-23BPA20-biotin; assay type: binding; details: inhibitor at 2 μM
Method: FIG. 4. […] Various concentrations of inhibitor were incubated with APP substrate (S4) or Notch peptide substrate containing the C-terminal biotinylated transmembrane domain of Notch1 and HeLa cell membrane in the presence of 0.25% CHAPSO. Aβ40 was detected by G2-10 antibody. The cleaved Notch product was detected by Val1744 antibody that specifically recognizes the cleaved product between Gly1743 and Val1744. Activities are expressed as percentage relative to reading that was produced in DMSO control. […] Various concentrations of S4 substrate were incubated with HeLa membrane in fixed concentrations of inhibitor as indicated. The double reciprocal velocity (1/v) and substrate concentrations (1/S) are plotted to determine the type of inhibition. […] Assays were conducted as described in FIG. 4A. […] The labeled samples were solubilized with RIPA buffer. Biotinylated proteins were captured with streptavidin-agarose and probed by immunoblotting using antibodies against biotin, PS1-CTF, PS1-NTF, Nicastrin, PEN-2 and APH-1a. HeLa cell membrane proteins were directly loaded onto lanes indicated by an arrow in the PEN-2 and APH-1a blots as positive controls. […] Upper panel: PS1-NTF; Lower panel: PS1-CTF.
The labeled proteins were eluted with 2×SDS sample buffer and analyzed with Western blotting using antibodies against the components of γ-secretase complex. Protein concentration was determined with the Dc protein assay kit (Bio-Rad)
After the photolyzed membranes were solubilized, biotinylated proteins were captured, eluted and analyzed by western blotting with antibodies against biotin, PS1, nicastrin, PEN-2 and APH-1.

γ-secretase [3] = target: T2, γ-secretase (Homo sapiens (Human), UniProt P49768); assay: Notch1 processing in ΔE-Notch1 transfected HEK293 cells, NICD Western blot; assay type: cell-based; details: 2 μM, 48 hrs
Method: FIG. 5. […] The conditioned media were collected and secreted Aβ40 was measured with 6E10/G2-10 antibodies (mean±SEM; n=3). The activities of the peptide treatments were normalized to the DMSO treatment. […] The same experiments were performed as FIG. 5c. The cell lysates were analyzed by CT-15 antibody. Upper panel: full length APP. Lower panel: CTFs. […] The ΔE-Notch1 (a Notch construct with deletion of the extracellular portion and tagged by Myc) was transfected into HEK293 cells.

γ-secretase [4] = target: T2, γ-secretase; assay: HTRF γ-secretase assay with Sb4 substrate; assay type: biochemical; details: 384-well, 2% DMSO; read-out: IC50, HTRF assay
Source text: We set out to transfer the assay conditions obtained with the ECL method to an HTRF detection based format (FIG. 10b). The HTRF detection mixture consisted of mouse G2-10 antibody for recognition of the C-terminal epitope of the cleaved product, a Europium-labeled anti-mouse antibody (commonly, an antibody is conjugated with a cryptate ligand that forms a three dimensional coordination cage structure surrounding a lanthanide such as Eu^3+), along with Streptavidin conjugated to a trimeric form of the fluorescent protein allophycocyanin referred to as XL665. Cleavage of Sb4 substrate allows G2-10 mouse antibody to bind to the Aβ40-processed site on the cleaved substrate. The Steptavidin-XL665 conjugate binds directly with the biotin moiety on the N-terminal end of the Sb4 derived product. The anti-mouse Europium antibody targets to the G2-10 antibody, bringing all of these entities into close proximity. The Europium and XL665 reagents are a compatible pair of donor-acceptor fluorophores, and excitation of Europium at 337 nm results in fluorescence energy resonance transfer (FRET) to XL665 which fluoresces at 665 nm (FIG. 10b).
Human γ-secretase was prepared from HeLa cell membranes as described previously (Li et al., 2000). Briefly, HeLa cell pellet was resuspended in 1×MES buffer (50 mM MES, pH 6.0, 150 mM KCl, 5 mM CaCl2, 5 mM MgCl2) and treated with ‘complete’ protease inhibitor (Boehringer Mannheim). The resuspended pellet was mechanically homogenized by passing the cells through the French Press (Spectronic Instruments), and subsequently spun down at 800 g to remove cell debris and nuclei. Next, the supernatants were spun at 100,000 g in order to pellet the membranes. The pelleted membranes were resuspended in 1×MES buffer to approximately 12 mg/ml. This entire procedure was performed at 4° C. HeLa membranes were solubilized using 1% CHAPSO detergent in 1×MES buffer with protease inhibitors. After incubating for 1 hr at 4° C., the membrane was spun down at 100,000 g and the supernatants were collected and stored at −70° C. The collected fraction is defined as solubilized γ-secretase.
HTRF conditions were initially optimized in a 384-well format using a final volume of 20 μl. The high control for this assay was defined as the observed γ-secretase activity in the presence of 1% DMSO (v/v) and the low control as the activity observed when including 100 nM final concentration of Compound E (v/v). First, we determined a tolerable DMSO concentration that would not interfere with γ-secretase activity. Even with 3% DMSO (v/v) present in the assay mixture, there was virtually no effect on the γ-secretase activity (FIG. 11a), which was critical as delivery of library screening compounds required a final concentration of 2% DMSO (v/v) in the γ-secretase reaction. Next, we titrated the HTRF mixture components in an effort to minimize reagent costs for use in high throughput screening. […] Additionally, we varied Europium conjugated anti-mouse antibody and determined that 1 nM of this reagent in the HTRF mixture was sufficient for our assay conditions even though the signal continued to increase with higher concentrations of the anti-mouse antibody (FIG. 11c).
We have further miniaturized the HTRF assay from the established 384-well format to a 1536-well platform enabling more efficient screening of large chemical libraries. […] Based on these optimization experiments, we set our final assay conditions at 0.3 nM G2-10, 1 nM anti-mouse antibody, 15 nM Streptavidin-XL665, and proceeded with the assay at 10 μl final volume (5 μl γ-secretase mix+5 μl HTRF mix) in the 1536-well format for screening.
The pilot assay was performed in duplicate on two separate days to account for any day-to-day variability. […]

A20 mouse lymphoma cells = assay: Lymphoma cell proliferation assay, [3H]thymidine incorporation; assay type: cell-based; details: 48 hours
Method: For a lymphoma cell proliferation assay, A20 mouse lymphoma cells were seeded in a 96-well plate at a concentration of 5×10^5 cells/ml in 100 μl RPMI media containing 2% fetal bovine serum. An additional 100 μl of media containing DMSO or γ-secretase inhibitor was added and incubated for 48 hours at 37° C. After this incubation, the cells were incubated for 5 hours with 2 μCi/ml [^3H]thymidine at 37° C. Proliferative response was then evaluated by harvesting the tritiated DNA from cells using a Skatron cell harvester and proliferation assessed as a function of [^3H]thymidine incorporation measured on a β-counter.

Question: With CC(C)C[C@H](NC(=O)[C@H](Cc1ccccc1)C[C@@H](O)[C@H](Cc1ccccc1)NC(=O)OC(C)(C)C)C(=O)N[C@@H](Cc1ccccc1)C(N)=O [L-685,458] as the molecule, how does the “type of inhibition (Lineweaver-Burk)” value (γ-secretase [1]) read?
Answer: competitive inhibition

Question: What about the “block of photo-crosslinking of PS1-CTF and PS1-NTF by Aβ17-23BPA20-biotin” value (γ-secretase [2]) of the same molecule?
Answer: completely blocked

Question: What about the “production of NICD” value (γ-secretase [3]) of the same molecule?
Answer: NICD was not detected

Question: What about the IC50 (γ-secretase [4]) of the same molecule?
Answer: 1.4 nM

Question: What about the “inhibition of cellular proliferation” value (A20 mouse lymphoma cells) of the same molecule?
Answer: able to inhibit cellular proliferation
